Results published in patent US12590062B2, “PD-1/PD-L1 inhibitors” (Gilead Sciences, Inc., priority 2017, dated 2026).

The compounds below were run against T1, PD-1/PD-L1 interaction (Homo sapiens, UniProt Q9NZQ7) (assay: PD-1/PD-L1 NFAT reporter co-culture assay). Settings: Jurkat PD-1 NFAT-luciferase cells co-cultured with aAPC-PD-L1 CHO cells, 6 hrs at 37° C.; read-out: EC50 NFAT Luciferase.
T1 construct: expressed in transfected cells; host or cells: CHO cells (aAPC-PD-L1) co-cultured with Jurkat cells overexpressing PD-1 and an NFAT-luciferase reporter
T1 sequence (Q9NZQ7 19-290): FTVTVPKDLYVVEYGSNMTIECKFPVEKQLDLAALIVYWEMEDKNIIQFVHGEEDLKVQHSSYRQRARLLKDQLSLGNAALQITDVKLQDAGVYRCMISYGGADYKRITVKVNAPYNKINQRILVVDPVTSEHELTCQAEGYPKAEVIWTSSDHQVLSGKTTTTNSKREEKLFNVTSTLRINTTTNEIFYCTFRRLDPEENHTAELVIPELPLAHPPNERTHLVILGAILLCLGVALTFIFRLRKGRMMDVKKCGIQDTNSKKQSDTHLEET
Assay type: cell-based
In short: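 Luminescence (ONE-Glo) after 6 h, 37 °C co-culture reports NFAT-luciferase in PD-1 Jurkat cells, which PD-1/PD-L1 engagement suppresses. Partner cells: CHO expressing anti-CD3 and PD-L1. EC50 from four-parameter dose-response fit.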

| Structure (SMILES) | EC50 [nM] |
| --- | --- |
| COc1nc(OCc2cccc(-c3cccc(COc4nc(OC)c(CN5CC[C@H](O)C5)cc4Br)c3C)c2C)c(Br)cc1CN1CC[C@H](O)C1 [Example 244, (3S,3′S)-1,1′-(((((2,2′-dimethyl-[1,1′-biphenyl]-3,3′-diyl)bis(methylene))bis(oxy))bis(5-bromo-2-methoxypyridine-6,3-diyl))bis(methylene))bis(pyrrolidin-3-ol)] | 390 |
| COc1nc(OCc2cccc(-c3cccc(COc4nc(OC)c(CN[C@@H](C)C(=O)O)cc4Cl)c3C)c2C)c(Cl)cc1CN[C@@H](C)C(=O)O [Example 98, (2S,2′S)-2,2′-((((((2,2′-dimethyl-[1,1′-biphenyl]-3,3′-diyl)bis(methylene))bis(oxy))bis(5-chloro-2-methoxypyridine-6,3-diyl))bis(methylene))bis(azanediyl))dipropionic acid] | 70 |
| COc1nc(OCc2cccc(-c3cccc(COc4nc(OC)c(C(CC(=O)O)N(C)C)cc4Cl)c3C)c2C)c(Cl)cc1C(CC(=O)O)N(C)C (mixture of isomers) [Example 236, 3,3′-((((2,2′-dimethyl-[1,1′-biphenyl]-3,3′-diyl)bis(methylene))bis(oxy))bis(5-chloro-2-methoxypyridine-6,3-diyl))bis(3-(dimethylamino)propanoic acid)] | 5030 |
| COc1nc(O[C@H]2CCc3c(-c4cccc(-c5ccc(OCCNCCO)cc5)c4C)cccc32)ccc1CNCC(=O)O [Example 102, (S)-((6-((4-(4′-(2-((2-hydroxyethyl)amino)ethoxy)-2-methyl-[1,1′-biphenyl]-3-yl)-2,3-dihydro-1H-inden-1-yl)oxy)-2-methoxypyridin-3-yl)methyl)glycine] | 13200 |
| COc1nc(OCc2cccc(-c3cccc(COc4nc(OC)c(CNC(C)(C)C(=O)O)cc4Cl)c3C)c2C)c(Cl)cc1CNC(C)(C)C(=O)O [Example 97, 2,2′-((((((2,2′-dimethyl-[1,1′-biphenyl]-3,3′-diyl)bis(methylene))bis(oxy))bis(5-chloro-2-methoxypyridine-6,3-diyl))bis(methylene))bis(azanediyl))bis(2-methylpropanoic acid)] | 28 |
| COc1nc(OCc2cccc(-c3cccc(COc4nc(OC)c(CN5CCNC(=O)C5)cc4Br)c3C)c2C)c(Br)cc1CN1CCNC(=O)C1 [Example 270, 4,4′-(((((2,2′-dimethyl-[1,1′-biphenyl]-3,3′-diyl)bis(methylene))bis(oxy))bis(5-bromo-2-methoxypyridine-6,3-diyl))bis(methylene))bis(piperazin-2-one)] | ≥ 50000 |
| COc1nc(OCc2cccc(-c3cccc(COc4nc(OC)c(CN5CCOC[C@H]5C(=O)O)cc4Cl)c3C)c2C)c(Cl)cc1CN1CCOC[C@H]1C(=O)O [Example 233, (3S,3′S)-4,4′-(((((2,2′-dimethyl-[1,1′-biphenyl]-3,3′-diyl)bis(methylene))bis(oxy))bis(5-chloro-2-methoxypyridine-6,3-diyl))bis(methylene))bis(morpholine-3-carboxylicacid)] | 11600 |
| N#Cc1cncc(COc2nc(OCc3cccc(-c4cccc(COc5nc(OCc6cncc(C#N)c6)c(CNC[C@@H](O)CC(=O)O)cc5Br)c4Cl)c3Cl)ccc2CNC[C@@H](O)CC(=O)O)c1 [Example 194, (S)-4-(((6-((3′-(((3-Bromo-5-((((S)-3-carboxy-2-hydroxypropyl)amino)methyl)-6-((5-cyanopyridin-3-yl)methoxy)pyridin-2-yl)oxy)methyl)-2,2′-dichloro-[1,1′-biphenyl]-3-yl)methoxy)-2-((5-cyanopyridin-3-yl)methoxy)pyridin-3-yl)methyl)amino)-3-hydroxybutanoic acid] | 1260 |
| COc1nc(OCc2cccc(-c3cccc(COc4nc(OC)c(CN[C@@](C)(CO)C(=O)O)cc4Cl)c3C)c2C)c(Cl)cc1CN[C@@](C)(CO)C(=O)O [Example 44, (2S,2′S)-2,2′-((((((2,2′-dimethyl-[1,1′-biphenyl]-3,3′-diyl)bis(methylene))bis(oxy))bis(5-chloro-2-methoxypyridine-6,3-diyl))bis(methylene))bis(azanediyl))bis(3-hydroxy-2-methylpropanoic acid)] | 62 |
| COc1nc(OCc2cccc(-c3cccc(COc4nc(OC)c(CN(C)CCN5CCOCC5)cc4Br)c3C)c2C)c(Br)cc1CN(C)CCN1CCOCC1 [Example 268, N,N′-(((((2,2′-dimethyl-[1,1′-biphenyl]-3,3′-diyl)bis(methylene))bis(oxy))bis(5-bromo-2-methoxypyridine-6,3-diyl))bis(methylene))bis(N-methyl-2-morpholinoethan-1-amine)] | 993 |
| COc1nc(OCc2cccc(-c3cccc(COc4nc(OC)c(CN[C@@H]5CCC[C@H]5C(=O)O)cc4Cl)c3C)c2C)c(Cl)cc1CN[C@@H]1CCC[C@H]1C(=O)O [Example 75, (1R,1′R,2R,2′R)-2,2′-((((((2,2′-dimethyl-[1,1′-biphenyl]-3,3′-diyl)bis(methylene))bis(oxy))bis(5-chloro-2-methoxypyridine-6,3-diyl))bis(methylene))bis(azanediyl))bis(cyclopentane-1-carboxylic acid)] | 384 |
| COc1nc(OCc2cccc(-c3cccc(COc4nc(OC)c(CNC(C)(C)CC(=O)O)cc4Cl)c3C)c2C)c(Cl)cc1CNC(C)(C)CC(=O)O [Example 82, 3,3′-((((((2,2′-dimethyl-[1,1′-biphenyl]-3,3′-diyl)bis(methylene))bis(oxy))bis(5-chloro-2-methoxypyridine-6,3-diyl))bis(methylene))bis(azanediyl))bis(3-methylbutanoic acid)] | 1710 |
| COc1nc(OCc2cccc(-c3cccc(COc4nc(OC)c(CNC[C@@H](O)CC(=O)O)cc4Br)c3Cl)c2Cl)ccc1CNC[C@@H](O)CC(=O)O [Example 190, (S)-4-(((6-((3′-(((3-Bromo-5-((((S)-3-carboxy-2-hydroxypropyl)amino)methyl)-6-methoxypyridin-2-yl)oxy)methyl)-2,2′-dichloro-[1,1′-biphenyl]-3-yl)methoxy)-2-methoxypyridin-3-yl)methyl)amino)-3-hydroxybutanoic acid] | 516 |
| COC(=O)[C@@H](C)NCc1cc(Cl)c(OCc2cccc(-c3cccc(COc4nc(OC)c(CN[C@H](C)C(=O)OC)cc4Cl)c3C)c2C)nc1OC [Example 89, Dimethyl 2,2′-((((((2,2′-dimethyl-[1,1′-biphenyl]-3,3′-diyl)bis(methylene))bis(oxy))bis(5-chloro-2-methoxypyridine-6,3-diyl))bis(methylene))bis(azanediyl))(2R,2′R)-dipropionate] | 670 |
| Cc1c(COc2nc(OCc3cnn(C)c3)c(CNC[C@@H](O)CC(=O)O)cc2Cl)cccc1-c1cccc(COc2nc(OCc3cnn(C)c3)c(CNC[C@@H](O)CC(=O)O)cc2Cl)c1C [Example 136, (3S,3′S)-4,4′-((((((2,2′-dimethyl-[1,1′-biphenyl]-3,3′-diyl)bis(methylene))bis(oxy))bis(5-chloro-2-((1-methyl-1H-pyrazol-4-yl)methoxy)pyridine-6,3-diyl))bis(methylene))bis(azanediyl))bis(3-hydroxybutanoic acid)] | 529 |
| COc1nc(OCc2cccc(-c3cccc(COc4nc(OC)c(CN[C@@H]5CONC5=O)cc4Cl)c3C)c2C)c(Cl)cc1CN[C@@H]1CONC1=O [Example 173, (4R,4′R)-4,4′-((((((2,2′-dimethyl-[1,1′-biphenyl]-3,3′-diyl)bis(methylene))bis(oxy))bis(5-chloro-2-methoxypyridine-6,3-diyl))bis(methylene))bis(azanediyl))bis(isoxazolidin-3-one)] | ≥ 50000 |
| COc1nc(OCc2cccc(-c3cccc(COc4nc(OC)c(CNC(C)C(=O)N(C)C)cc4Cl)c3C)c2C)c(Cl)cc1CNC(C)C(=O)N(C)C (stereo not drawn) [Example 83, 2,2′-((((((2,2′-dimethyl-[1,1′-biphenyl]-3,3′-diyl)bis(methylene))bis(oxy))bis(5-chloro-2-methoxypyridine-6,3-diyl))bis(methylene))bis(azanediyl))bis(N,N-dimethylpropanamide)] | 1680 |
| CNC(=O)C1CN(Cc2cc(Br)c(OCc3cccc(-c4cccc(COc5nc(OC)c(CN6CC(C(=O)NC)C6)cc5Br)c4C)c3C)nc2OC)C1 [Example 256, 1,1′-(((((2,2′-dimethyl-[1,1′-biphenyl]-3,3′-diyl)bis(methylene))bis(oxy))bis(5-bromo-2-methoxypyridine-6,3-diyl))bis(methylene))bis(N-methylazetidine-3-carboxamide)] | 758 |
| Cc1c(COc2cc(OCc3cncc(C#N)c3)c(CNC[C@@H](O)CC(=O)O)cc2Cl)cccc1-c1cccc(-c2nc3ccc(CNC[C@@H](O)CC(=O)O)cc3s2)c1C [Example 286, (S)-4-(((2-(3′-((4-((((S)-3-carboxy-2-hydroxypropyl)amino)methyl)-2-chloro-5-((5-cyanopyridin-3-yl)methoxy)phenoxy)methyl)-2,2′-dimethyl-[1,1′-biphenyl]-3-yl)benzo[d]thiazol-6-yl)methyl)amino)-3-hydroxybutanoic acid] | 232 |
| CC[C@@H](NCc1cc(Cl)c(OCc2cccc(-c3cccc(COc4nc(OC)c(CN[C@H](CC)C(=O)O)cc4Cl)c3C)c2C)nc1OC)C(=O)O [Example 99, (2R,2′R)-2,2′-((((((2,2′-dimethyl-[1,1′-biphenyl]-3,3′-diyl)bis(methylene))bis(oxy))bis(5-chloro-2-methoxypyridine-6,3-diyl))bis(methylene))bis(azanediyl))dibutyric acid] | 157 |
| Cc1c(COc2cc(OCc3cncc(C#N)c3)c(CN3CCCC[C@H]3C(=O)O)cc2Cl)cccc1-c1cccc(COc2cc(OCc3cncc(C#N)c3)c(CN3CCCC[C@H]3C(=O)O)cc2Cl)c1C [Example 53, (2S,2′S)-1,1′-(((((2,2′-dimethyl-[1,1′-biphenyl]-3,3′-diyl)bis(methylene))bis(oxy))bis(5-chloro-2-((5-cyanopyridin-3-yl)methoxy)-4,1-phenylene))bis(methylene))bis(piperidine-2-carboxylic acid)] | 722 |
